Experimental data as given in PubChem BioAssay AID256 (DTP/NCI, 2004).
Toxic doses and inconclusive results are not listed. The calls were made as follows: active = survival T/C of 150% or more; inactive = T/C below 125% in these data.

System: CD2F1 mice, L1210 leukemia ip, survival T/C
Assay: NCI In Vivo Anticancer Drug Screen. Data for tumor model L1210 Leukemia (intraperitoneal) in CD2F1 (CDF1) mice
Conditions: higher = longer survival
Summary of the method: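 Compound-dosed mice with transplantable tumor versus matched vehicle controls; endpoint ratio T/C reported.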

Measured: T/C

CC1(C)Nc2cc3c(cc2-n2cccc21)oc1ccccc13
inactive: endpoint: median survival time, dose: 50.0 mg/kg/injection, schedule: Q01DX005 (ip), vehicle: DMSO 98 % of control | endpoint: median survival time, dose: 100.0 mg/kg/injection, schedule: Q01DX005 (ip), vehicle: DMSO 103 % of control | endpoint: median survival time, dose: 200.0 mg/kg/injection, schedule: Q01DX005 (ip), vehicle: DMSO 100 % of control | endpoint: median survival time, dose: 400.0 mg/kg/injection, schedule: Q01DX005 (ip), vehicle: DMSO 101 % of control | endpoint: median survival time, dose: 800.0 mg/kg/injection, schedule: Q01DX005 (ip), vehicle: DMSO 103 % of control

CCCCCCCCCCCC#N
inactive: endpoint: mean survival time, dose: 100.0 mg/kg/injection, schedule: Q04DX003 (ip), vehicle: Klucel (hydroxypropylcellulose) (HPC) 102 % of control | endpoint: mean survival time, dose: 200.0 mg/kg/injection, schedule: Q04DX003 (ip), vehicle: Klucel (hydroxypropylcellulose) (HPC) 97 % of control | endpoint: mean survival time, dose: 400.0 mg/kg/injection, schedule: Q04DX003 (ip), vehicle: Klucel (hydroxypropylcellulose) (HPC) 104 % of control

CC(=O)OC1(c2ccccc2)CC(=O)C=C1c1ccccc1 (stereo unspecified)
inactive: endpoint: mean survival time, dose: 25.0 mg/kg/injection, schedule: Q04DX002 (ip), vehicle: saline with Tween-80 102 % of control | endpoint: mean survival time, dose: 50.0 mg/kg/injection, schedule: Q04DX002 (ip), vehicle: saline with Tween-80 91 % of control | endpoint: mean survival time, dose: 100.0 mg/kg/injection, schedule: Q04DX002 (ip), vehicle: saline with Tween-80 87 % of control
